# Laboratory results: patent US6362369B1, “Phthalic acid diamide derivatives fluorine-containing aniline compounds as starting material, agricultural and horticultural insecticides, and a method for application of the insecticides” (Nihon Nohyaku Co., Ltd., priority 1997, dated 2002)
# Experiments:
# Type in all cases: in vivo
# [1] = test system: common cutworm (Spodoptera Litura); assay: Insecticidal effect on common cutworm (Test Example 2); settings: 500 ppm, second-instar larvae of common cutworm, 25° C.; for Insecticidal effect, Test Example 2: cabbage leaf immersed, eight days after inoculation; for Insecticidal effect (Test Example 2), judged from mortality: cabbage leaf dip, 8 days after inoculation
# Outline: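 Mortality is the read-out: larvae are counted as dead or alive on day 8 and the percentage is graded by an effect criterion. Second-instar larvae are kept with the air-dried treated material in a sealed dish at 25° C, in triplicate groups of ten.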
# [2] = test system: rice leafroller (Cnaphalocrocis medinalis); assay: Insecticidal effect on rice leafroller (Test Example 3); settings: 500 ppm; rice lamina immersed; third-instar larvae of rice leafroller; four days after inoculation; 25° C., humidity 70%
# Outline: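 Groups of 10 third-instar larvae, in triplicate, are placed on air-dried lamina resting on wet filter paper. Incubation runs four days at 25° C with 70% humidity before survivors and dead are tallied.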
# [3] = test system: diamondback moth (Plutella xylostella); assay: Insecticidal effect on diamondback moth (Test Example 1); settings: diamondback moth; judged by the criterion of Test Example 1
# Outline: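 Eggs laid by adult moths on Chinese cabbage seedlings, which were immersed in test solution, air-dried and kept at 25 °C. Hatched insects counted 6 days after immersion and mortality calculated, with effect graded by criterion; triplicate groups of 10 insects.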
SMILES,"Insecticidal effect, Test Example 2 [1]","Insecticidal effect, Test Example 3 [2]","Insecticidal effect (Test Example 2), judged from mortality [1]","Insecticidal effect (Test Example 1), judged from mortality [3]"
Cc1cc(OC(F)(F)C(F)(Cl)Cl)ccc1NC(=O)c1c(Cl)cccc1C(=O)NC(C)C [compound 228],B (99-90),A (100),–,–
CC(C)NC(=O)c1cccc(Cl)c1C(=O)Nc1ccc(C(F)(C(F)(F)F)C(F)(F)F)cc1Cl [compound 231],B (99-90),A (100),–,–
Cc1ccc(NC(=O)c2cccc(Br)c2C(=O)NC(C)C)c(C)c1 [compound 264],D (79-50),A (100),–,–
CC(C)NC(=O)c1c(I)cccc1C(=O)Nc1ccc(C(F)(C(F)(F)F)C(F)(F)F)cc1F [compound 1669],–,–,A (100),A (100)
CC(C)(C)NC(=O)c1c(I)cccc1C(=O)Nc1ccc(C(F)(C(F)(F)F)C(F)(F)F)cc1F [compound 1670],–,–,A (100),A (100)
CSc1cc(C(F)(C(F)(F)F)C(F)(F)F)ccc1NC(=O)c1cccc(I)c1C(=O)NC(C)C [compound 1671],–,–,A (100),A (100)
CSc1cc(C(F)(C(F)(F)F)C(F)(F)F)ccc1NC(=O)c1cccc(I)c1C(=O)NC(C)(C)C [compound 1672],–,–,A (100),A (100)
CC(C)NC(=O)c1c(I)cccc1C(=O)Nc1ccc2oc(C(F)(F)F)nc2c1Cl [compound 1682],–,–,A (100),A (100)
CC(C)NC(=O)c1c(I)cccc1C(=O)Nc1cc2c(cc1Br)OC(F)(F)C(F)O2 (stereo not drawn) [compound 1684],–,–,A (100),A (100)
Cc1c(NC(=O)c2cccc(I)c2C(=O)NC(C)C)ccc(C(F)(C(F)(F)F)C(F)(F)F)c1C [compound 1689],–,–,A (100),A (100)
Cc1c(NC(=O)c2cccc(I)c2C(=O)NC(C)(C)C)ccc(C(F)(C(F)(F)F)C(F)(F)F)c1C [compound 1690],–,–,A (100),A (100)
CC(C)NC(=O)c1c(I)cccc1C(=O)Nc1ccc(C(F)(C(F)(F)F)C(F)(F)F)cc1C(C)C [compound 1691],–,–,A (100),A (100)
CCOc1cc(C(F)(C(F)(F)F)C(F)(F)F)ccc1NC(=O)c1cccc(I)c1C(=O)NC(C)C [compound 1693],–,–,A (100),A (100)
CC(C)NC(=O)c1c(I)cccc1C(=O)Nc1ccc(C(F)(C(F)(F)F)C(F)(F)F)c(F)c1 [compound 1695],–,–,A (100),A (100)
CC(C)(C)NC(=O)c1c(I)cccc1C(=O)Nc1ccc(C(F)(C(F)(F)F)C(F)(F)F)c(F)c1 [compound 1696],–,–,A (100),A (100)
CC(C)NC(=O)c1c(I)cccc1C(=O)Nc1ccc(C(F)(C(F)(F)F)C(F)(F)F)c(Cl)c1 [compound 1697],–,–,A (100),A (100)
CC(C)NC(=O)c1c(I)cccc1C(=O)Nc1ccc(C(F)(C(F)(F)F)C(F)(F)F)cc1Br [compound 1699],–,–,A (100),A (100)
CSc1cc(C(F)(F)C(F)(F)F)ccc1NC(=O)c1cccc(I)c1C(=O)NC(C)C [compound 1700],–,–,D (79-50),A (100)
